Reference: patent US10000483B2, “Bone marrow on X chromosome kinase (BMX) inhibitors and uses thereof” (Dana-Farber Cancer Institute, Inc., priority 2012, dated 2018)
Values joined by “and” are separate entries in the source; they are usually repeats but may differ in a detail not shown here. Identical values can stand only once. Values belong to the compound of their own block, whether it stands above or below them.

Columns and labels:
[1] = test system: CD19+ B-cells from a Waldenstrom's macroglobulinemia patient; test: Apoptosis analysis of primary patient cells (Annexin V/propidium iodide); format: cell-based, human; settings: patient after six months of ibrutinib treatment; FIG. 22
Description: Primary patient WM cells genotyped for MYD88 L265P, as well as MYD88 WT healthy donor CD19-selected peripheral blood mononuclear cells (PBMCs) were treated with and without inhibitor compounds. Cells were incubated at 37° C. with 0.01˜4 μM of an inhibitor compound of Formula (I) or (II) (e.g., 11-4). Apoptosis analysis was performed using Annexin V-FITC/Propidium iodide staining with the Apoptosis Detection Kit I (BD Pharmingen). 1×10^6/well cells were treated in 24 well plates for˜24 hours with inhibitor compounds or corresponding controls. A minimum of 10,000 events were acquired using a BD™ FACSCanto II flow cytometer and analyzed with BD FACS DIVA Software.

MWCL-1 cells = test: Cell proliferation analysis for WM and lymphoma cell lines (CellTiter-Glo); format: cell-based; settings: 72 hours
Description: (§2) Various cell lines were used including Waldenström's macroglobulinemia (WM) cell lines (BCWM.1, MWCL-1, RPCI-WM1) and B-cell lymphoma cell lines (OCI-Ly3, Ramos, OCI-Ly19). Cells were seeded into 384 well plates with the EL406 Combination Washer Dispenser (BioTek Instruments, Inc.) and inhibitor compounds were injected into the cells culture media with the JANUS Automated Workstation (PerkinElmer Inc.).

OCI-Ly19 cells = test: as above; format: cell-based; settings: Homo sapiens, 72 hours
Description: as §2

OCI-Ly3 cells = test: as above; format: cell-based; settings: Homo sapiens, 72 hours
Description: as §2

BCWM.1 cells = test: as above; format: cell-based; settings: BCWM1; 72 hours
Description: as §2

BTK [2] = biological target: T1, BTK (Homo sapiens (Human), UniProt Q06187); test: Invitrogen Select Screening in vitro kinase assay; format: biochemical
TEC [3] = biological target: T2, TEC (Homo sapiens (Human), UniProt P42680); test: Invitrogen Select Screening in vitro kinase assay; format: biochemical
Source text: (§1) The in vitro activity of compounds of Formula (I) and (II) in inhibiting BMX and other kinases were obtained using an Invitrogen Select Screening assay as known in the art. The IC50 values determined from this assay are shown below.

mTOR [4] = biological target: T3, mTOR (Homo sapiens (Human), UniProt P42345); test: Invitrogen Select Screening in vitro kinase assay; format: biochemical
Source text: as §1

BLK [5] = biological target: T4, BLK (Homo sapiens (Human), UniProt P51451); test: Invitrogen Select Screening in vitro kinase assay; format: biochemical
Source text: as §1

JAK3 [6] = biological target: T5, JAK3 (Homo sapiens (Human), UniProt P52333); test: Invitrogen Select Screening in vitro kinase assay; format: biochemical
Ramos cells = test: Cell proliferation analysis for WM and lymphoma cell lines (CellTiter-Glo); format: cell-based; settings: Homo sapiens, 72 hours
Description: as §2

BMX [7] = biological target: T6, BMX (Homo sapiens (Human), UniProt P51813); test: Invitrogen Select Screening in vitro kinase assay; format: biochemical
CLK1 [8] = biological target: T7, CLK1 (Homo sapiens (Human), UniProt P49759); test: Invitrogen Select Screening in vitro kinase assay; format: biochemical; settings: first value of CLK1/2 cell
DYRK1A = DYRK1A (Homo sapiens (Human), UniProt Q13627); test: Kinase panel at 1 uM (Table 9); format: binding; settings: read-out: % inhibition at 1 uM, DYRK1A
Source text: (§3) Screening hits are identified by measuring the amount of protein captured in test versus control samples by using a quantitative, precise, and ultra-sensitive qPCR method that detects the associated DNA label.

MKNK2 = MKNK2 (Homo sapiens (Human), UniProt Q9HBH9); test: Kinase panel at 1 uM (Table 9); format: binding; settings: read-out: % inhibition at 1 uM, MKNK2
Source text: as §3

TAK1 = TAK1 (Homo sapiens (Human), UniProt O43318); test: Kinase panel at 1 uM (Table 9); format: binding; settings: read-out: % inhibition at 1 uM, TAK1
Source text: as §3

IRAK3 = IRAK3 (Homo sapiens (Human), UniProt Q9Y616); test: Kinase panel at 1 uM (Table 9); format: binding; settings: read-out: % inhibition at 1 uM, IRAK3
Source text: as §3

PIK4CB = PIK4CB (Homo sapiens (Human), UniProt Q9UBF8); test: Kinase panel at 1 uM (Table 9); format: binding; settings: read-out: % inhibition at 1 uM, PIK4CB
Source text: as §3

CLK1 [9] = biological target: T7, CLK1; test: DiscoverX binding assay
Source text: as §3

TEC [10] = biological target: T2, TEC; test: DiscoverX binding assay
Source text: as §3

FLT3(ITD) = test: Kinase panel at 1 uM (Table 9); format: binding
Source text: as §3

YSK4 = YSK4 (Homo sapiens (Human), UniProt Q56UN5); test: Kinase panel at 1 uM (Table 9); format: binding; settings: read-out: % inhibition at 1 uM, YSK4
Source text: as §3

EGFR(T790M) [11] = biological target: T8, EGFR(T790M) (Homo sapiens (Human), UniProt P00533, T790M); test: Invitrogen Select Screening in vitro kinase assay; format: biochemical
MEK5 = MEK5 (Homo sapiens (Human), UniProt Q13163); test: Kinase panel at 1 uM (Table 9); format: binding; settings: read-out: % inhibition at 1 uM, MEK5
Source text: as §3

CLK2 [12] = biological target: T9, CLK2 (Homo sapiens (Human), UniProt P49760); test: Invitrogen Select Screening in vitro kinase assay; format: biochemical; settings: second value of CLK1/2 cell
DYRK2 = DYRK2 (Homo sapiens (Human), UniProt Q92630); test: Kinase panel at 1 uM (Table 9); format: binding; settings: read-out: % inhibition at 1 uM, DYRK2
Source text: as §3

BLK [13] = biological target: T4, BLK; test: DiscoverX binding assay
Source text: as §3

PIK3CG = PIK3CG (Homo sapiens (Human), UniProt P48736); test: Kinase panel at 1 uM (Table 9); format: binding; settings: read-out: % inhibition at 1 uM, PIK3CG
Source text: as §3

CSNK2A2 = CSNK2A2 (Homo sapiens (Human), UniProt P19784); test: Kinase panel at 1 uM (Table 9); format: binding; settings: read-out: % inhibition at 1 uM, CSNK2A2
Source text: as §3

ITK = ITK (Homo sapiens (Human), UniProt Q08881); test: DiscoverX binding assay
Source text: as §3

BTK [14] = biological target: T1, BTK; test: DiscoverX binding assay
Source text: as §3

EGFR(T790M) [15] = biological target: T8, EGFR(T790M); test: DiscoverX binding assay
Source text: as §3

JNK1 = JNK1 (Homo sapiens (Human), UniProt P45983); test: Kinase panel at 1 uM (Table 9); format: binding; settings: read-out: % inhibition at 1 uM, JNK1
Source text: as §3

PIK3CA(I800L) = PIK3CA(I800L) (Homo sapiens (Human), UniProt P42336, I800L); test: Kinase panel at 1 uM (Table 9); format: binding; settings: read-out: % inhibition at 1 uM, PIK3CA(I800L)
Source text: as §3

JAK3 [16] = biological target: T5, JAK3; test: DiscoverX binding assay
Source text: as §3

JNK3 = JNK3 (Homo sapiens (Human), UniProt P53779); test: Kinase panel at 1 uM (Table 9); format: binding; settings: read-out: % inhibition at 1 uM, JNK3
Source text: as §3

PIP5K2C = PIP5K2C (Homo sapiens (Human), UniProt Q8TBX8); test: Kinase panel at 1 uM (Table 9); format: binding; settings: read-out: % inhibition at 1 uM, PIP5K2C
Source text: as §3

BMX [17] = biological target: T6, BMX; test: DiscoverX binding assay
Source text: as §3

CLK2 [18] = biological target: T9, CLK2; test: DiscoverX binding assay
Source text: as §3

mTOR [19] = biological target: T3, mTOR; test: DiscoverX binding assay; settings: DiscoverX binding
Source text: as §3

DYRK1B = DYRK1B (Homo sapiens (Human), UniProt Q9Y463); test: Kinase panel at 1 uM (Table 9); format: binding; settings: read-out: % inhibition at 1 uM, DYRK1B
Source text: as §3

[20] = test system: Bmx- MEF cells stably overexpressing BmxWT; test: Wound healing assay; format: cell-based, mouse; settings: preincubated 4 h; leading edges at 0 and 9 h
Description: FIGS. 3A-B show the immunoblotting results where BMX (SiBMX) or control siRNA (SiCtrl) transfected LNCaP cells (FIG. 3A) or VCS2 cells (FIG. 3B) were serum starved for 72 h, serum was stimulated for the indicated times, and the whole cell lysates were immunoblotted. […] FIG. 3G is a bar graph showing the migrated distances where scratch wounds were introduced into confluent heterozygous for Bmx (Bmx^+/−), Bmx^+, or Bmx^− MEFs, and the leading edges were photographed at 0 and 9 h. The migrated distance was measured and normalized to #1 Bmx-group. Error bars depict standard error (SE) for three experiments (***: p<0.001). FIG. 3H is a bar graph showing the migrated distances where scratch wounds were introduced into confluent Bmx^− MEFs stably overexpressing BmxWT, BmxKD, or empty vector (EV), and the leading edges were photographed at 0 and 9 h. The migrated distance was measured and normalized to EV group. Error bar depict standard error (SE) for three independent experiments (*: p<0.05). FIG. 3I is a bar graph showing the migrated distances where Bmx^− MEF cells stably overexpressing BmxWT were preincubated with FAK inhibitor (PF562271) for 4 h. Scratch wounds were introduced into the cells, and the leading edges were photographed at 0 and 9 h. The migrated distance was measured and normalized to control group (Ctrl). […]

BMX [21] = biological target: T6, BMX; test: BMX protein levels in RV-1 cells; format: cell-based; settings: 72 h treatment, 5 μM
Source text: Moreover, the depletion could be rescued upon stable overexpression of the C496S mutant BMX.

wild-type (WT) BMX = wild-type (WT) BMX (Homo sapiens (Human), UniProt P51813); test: IP kinase assay, BMX autophosphorylation; format: biochemical; settings: FIG. 15
Source text: FIG. 15 confirms that the potency of the BMX inhibitors is due to covalent binding to cysteine 496.

RV-1 cells [22] = test: Anti-proliferation assay for prostate cancer cells (CellTiter-Glo); format: cell-based
Description: Data were normalized to control group (DMSO) and represented by the mean of at least two independent measurement with standard error <20%. GI50 were calculated using Prism 5.0 (GraphPad Software, San Diego, Calif.).

RV-1 cells [23] = test: Combination of I-14 with MK2206, dose-response in RV-1 cells; settings: with I-14

T7 sequence (P49759 whole entry): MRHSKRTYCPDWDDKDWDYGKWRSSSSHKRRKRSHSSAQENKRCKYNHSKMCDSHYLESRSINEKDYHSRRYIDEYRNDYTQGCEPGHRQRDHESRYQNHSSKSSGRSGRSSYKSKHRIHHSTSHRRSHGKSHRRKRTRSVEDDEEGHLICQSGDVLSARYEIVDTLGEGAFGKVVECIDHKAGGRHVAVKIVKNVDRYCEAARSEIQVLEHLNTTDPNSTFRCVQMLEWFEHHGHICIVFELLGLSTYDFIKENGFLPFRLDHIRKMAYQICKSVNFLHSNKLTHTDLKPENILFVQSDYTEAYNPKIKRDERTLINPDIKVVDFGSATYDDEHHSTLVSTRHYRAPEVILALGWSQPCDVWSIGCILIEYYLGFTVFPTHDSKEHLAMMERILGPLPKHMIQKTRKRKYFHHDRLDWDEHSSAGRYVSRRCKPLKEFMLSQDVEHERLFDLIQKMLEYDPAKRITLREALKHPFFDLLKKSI
T1 sequence (Q06187 whole entry): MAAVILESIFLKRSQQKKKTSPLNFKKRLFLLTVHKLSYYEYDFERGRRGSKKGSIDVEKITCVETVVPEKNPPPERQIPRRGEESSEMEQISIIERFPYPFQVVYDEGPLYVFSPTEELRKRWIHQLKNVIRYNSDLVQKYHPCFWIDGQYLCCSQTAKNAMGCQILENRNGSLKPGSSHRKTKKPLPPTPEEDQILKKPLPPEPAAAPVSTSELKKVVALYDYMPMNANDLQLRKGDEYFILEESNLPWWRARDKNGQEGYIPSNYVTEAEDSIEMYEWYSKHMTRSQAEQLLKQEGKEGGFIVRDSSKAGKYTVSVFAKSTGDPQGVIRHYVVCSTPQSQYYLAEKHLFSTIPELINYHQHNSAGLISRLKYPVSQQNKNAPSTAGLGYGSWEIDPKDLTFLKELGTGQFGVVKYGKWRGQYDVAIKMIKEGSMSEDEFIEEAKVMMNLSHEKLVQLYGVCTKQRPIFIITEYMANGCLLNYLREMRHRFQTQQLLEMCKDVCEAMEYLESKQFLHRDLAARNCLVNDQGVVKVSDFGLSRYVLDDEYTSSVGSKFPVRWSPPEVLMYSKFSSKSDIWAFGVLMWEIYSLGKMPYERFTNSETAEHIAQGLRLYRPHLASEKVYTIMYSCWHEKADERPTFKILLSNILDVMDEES
T5 sequence (P52333 whole entry): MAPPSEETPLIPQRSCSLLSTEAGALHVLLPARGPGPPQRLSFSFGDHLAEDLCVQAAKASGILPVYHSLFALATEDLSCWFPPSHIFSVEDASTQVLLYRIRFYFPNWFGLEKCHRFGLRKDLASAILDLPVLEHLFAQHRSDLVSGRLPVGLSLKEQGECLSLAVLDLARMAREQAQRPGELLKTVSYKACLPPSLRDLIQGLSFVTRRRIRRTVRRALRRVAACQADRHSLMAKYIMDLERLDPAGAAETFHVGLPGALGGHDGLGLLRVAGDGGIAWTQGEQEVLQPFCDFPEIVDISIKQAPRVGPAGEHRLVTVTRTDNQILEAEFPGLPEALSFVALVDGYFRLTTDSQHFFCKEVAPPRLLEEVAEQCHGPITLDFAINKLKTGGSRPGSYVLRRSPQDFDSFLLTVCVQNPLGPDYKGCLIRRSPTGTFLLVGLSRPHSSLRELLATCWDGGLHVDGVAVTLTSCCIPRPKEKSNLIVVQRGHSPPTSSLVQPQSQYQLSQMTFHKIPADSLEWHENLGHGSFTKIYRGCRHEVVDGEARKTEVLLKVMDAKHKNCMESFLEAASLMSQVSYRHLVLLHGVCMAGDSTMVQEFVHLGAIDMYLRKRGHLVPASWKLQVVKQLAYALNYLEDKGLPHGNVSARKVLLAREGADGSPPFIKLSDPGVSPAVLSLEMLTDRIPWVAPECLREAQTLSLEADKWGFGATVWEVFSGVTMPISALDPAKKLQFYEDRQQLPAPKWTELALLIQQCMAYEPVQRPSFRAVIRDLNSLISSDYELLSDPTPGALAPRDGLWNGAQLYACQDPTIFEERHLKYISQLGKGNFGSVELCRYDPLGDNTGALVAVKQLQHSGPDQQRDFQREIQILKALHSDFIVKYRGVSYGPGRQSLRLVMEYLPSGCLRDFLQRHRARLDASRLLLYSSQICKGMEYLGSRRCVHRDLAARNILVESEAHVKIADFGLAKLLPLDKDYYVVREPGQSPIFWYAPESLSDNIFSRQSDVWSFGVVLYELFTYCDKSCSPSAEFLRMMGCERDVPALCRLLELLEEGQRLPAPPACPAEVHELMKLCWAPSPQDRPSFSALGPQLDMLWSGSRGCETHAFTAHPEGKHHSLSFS
T6 sequence (P51813 whole entry): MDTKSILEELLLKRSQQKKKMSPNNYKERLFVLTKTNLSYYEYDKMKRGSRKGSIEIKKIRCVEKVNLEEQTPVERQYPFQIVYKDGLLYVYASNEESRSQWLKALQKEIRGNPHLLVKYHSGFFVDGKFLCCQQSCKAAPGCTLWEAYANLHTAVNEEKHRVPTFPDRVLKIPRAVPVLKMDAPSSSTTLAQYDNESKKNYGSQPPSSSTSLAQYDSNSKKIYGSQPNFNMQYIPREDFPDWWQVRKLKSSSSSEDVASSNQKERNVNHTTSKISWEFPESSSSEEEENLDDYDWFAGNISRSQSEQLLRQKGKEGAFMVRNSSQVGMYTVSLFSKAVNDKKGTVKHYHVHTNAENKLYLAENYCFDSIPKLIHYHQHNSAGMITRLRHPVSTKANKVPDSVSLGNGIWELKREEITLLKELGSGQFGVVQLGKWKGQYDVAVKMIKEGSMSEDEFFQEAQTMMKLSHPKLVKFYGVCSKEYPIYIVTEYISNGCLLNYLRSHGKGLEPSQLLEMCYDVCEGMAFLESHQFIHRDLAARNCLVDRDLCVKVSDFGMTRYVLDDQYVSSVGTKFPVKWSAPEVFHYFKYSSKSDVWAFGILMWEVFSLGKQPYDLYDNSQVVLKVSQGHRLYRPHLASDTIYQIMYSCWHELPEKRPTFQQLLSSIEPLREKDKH
T4 sequence (P51451 whole entry): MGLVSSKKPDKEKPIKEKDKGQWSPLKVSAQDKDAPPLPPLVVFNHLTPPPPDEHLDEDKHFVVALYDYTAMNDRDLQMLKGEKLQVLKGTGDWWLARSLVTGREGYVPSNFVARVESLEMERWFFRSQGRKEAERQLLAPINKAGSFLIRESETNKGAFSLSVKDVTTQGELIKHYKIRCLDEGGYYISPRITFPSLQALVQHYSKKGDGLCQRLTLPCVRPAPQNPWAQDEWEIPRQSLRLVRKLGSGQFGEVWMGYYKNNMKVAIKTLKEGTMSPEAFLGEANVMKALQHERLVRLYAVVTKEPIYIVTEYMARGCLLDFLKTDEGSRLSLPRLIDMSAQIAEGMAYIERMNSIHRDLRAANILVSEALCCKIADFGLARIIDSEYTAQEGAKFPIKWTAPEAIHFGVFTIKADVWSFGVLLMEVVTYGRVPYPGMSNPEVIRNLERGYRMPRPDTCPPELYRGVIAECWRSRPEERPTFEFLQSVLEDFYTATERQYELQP
T9 sequence (P49760 whole entry): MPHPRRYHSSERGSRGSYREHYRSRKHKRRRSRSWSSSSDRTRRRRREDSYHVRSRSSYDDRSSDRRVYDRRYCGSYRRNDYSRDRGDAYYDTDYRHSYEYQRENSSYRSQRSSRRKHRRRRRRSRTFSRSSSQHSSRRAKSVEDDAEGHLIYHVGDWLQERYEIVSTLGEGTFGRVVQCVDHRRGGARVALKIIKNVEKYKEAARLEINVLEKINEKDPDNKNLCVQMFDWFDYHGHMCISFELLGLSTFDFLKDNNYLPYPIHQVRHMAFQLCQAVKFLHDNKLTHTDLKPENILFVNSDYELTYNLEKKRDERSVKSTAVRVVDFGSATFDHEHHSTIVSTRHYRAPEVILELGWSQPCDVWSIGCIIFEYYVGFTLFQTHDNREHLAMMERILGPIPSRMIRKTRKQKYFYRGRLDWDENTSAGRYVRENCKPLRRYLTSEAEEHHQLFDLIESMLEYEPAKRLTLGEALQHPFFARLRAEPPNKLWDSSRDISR
T2 sequence (P42680 whole entry): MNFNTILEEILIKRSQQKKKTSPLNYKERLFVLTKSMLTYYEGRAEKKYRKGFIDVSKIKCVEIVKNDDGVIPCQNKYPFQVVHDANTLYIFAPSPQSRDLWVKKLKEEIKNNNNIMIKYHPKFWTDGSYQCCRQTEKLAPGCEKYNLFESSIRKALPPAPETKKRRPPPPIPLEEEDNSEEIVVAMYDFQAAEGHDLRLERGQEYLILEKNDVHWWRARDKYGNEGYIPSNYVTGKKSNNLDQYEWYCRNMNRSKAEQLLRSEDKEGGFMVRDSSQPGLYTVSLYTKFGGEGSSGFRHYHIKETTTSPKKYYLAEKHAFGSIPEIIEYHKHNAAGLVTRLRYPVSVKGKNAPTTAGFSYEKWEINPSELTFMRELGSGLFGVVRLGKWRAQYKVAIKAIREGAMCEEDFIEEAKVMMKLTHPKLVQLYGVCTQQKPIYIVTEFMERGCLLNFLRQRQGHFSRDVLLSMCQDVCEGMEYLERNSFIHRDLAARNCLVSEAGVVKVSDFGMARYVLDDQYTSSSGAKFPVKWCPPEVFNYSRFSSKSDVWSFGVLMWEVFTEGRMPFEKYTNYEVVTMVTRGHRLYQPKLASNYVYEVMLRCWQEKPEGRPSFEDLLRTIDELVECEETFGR
Chain of CSNK2A2 (P19784 whole entry): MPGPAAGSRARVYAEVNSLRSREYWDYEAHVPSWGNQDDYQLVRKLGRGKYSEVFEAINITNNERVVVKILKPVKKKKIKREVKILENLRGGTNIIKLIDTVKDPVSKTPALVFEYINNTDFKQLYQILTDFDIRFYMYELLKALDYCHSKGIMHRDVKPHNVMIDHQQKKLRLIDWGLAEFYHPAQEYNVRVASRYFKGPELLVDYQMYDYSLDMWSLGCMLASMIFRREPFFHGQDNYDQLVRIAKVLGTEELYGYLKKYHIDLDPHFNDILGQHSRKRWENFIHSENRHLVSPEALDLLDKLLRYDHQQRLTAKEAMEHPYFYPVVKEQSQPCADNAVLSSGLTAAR
Chain of wild-type (WT) BMX (P51813 whole entry): as the sequence (P51813 whole entry) above

EC50 (MWCL-1 cells): 190 nM
EC50 (OCI-Ly19 cells): 30 nM
EC50 (OCI-Ly3 cells): 190 nM
EC50 (BCWM.1 cells): 120 nM
Structure (SMILES): C=CC(=O)N1CCc2ccc(-n3c(=O)ccc4cnc5ccc(-c6cnn(C)c6)cc5c43)cc21 [II-4]
killing of ex vivo CD19+ B-cells [1]: effectively killed ex vivo cells

EC50 (MWCL-1 cells): 650 nM
IC50 (BTK [2]): 12 nM
EC50 (OCI-Ly19 cells): 160 nM
IC50 (TEC [3]): 57 nM
IC50 (mTOR [4]): 209 nM
IC50 (BLK [5]): 247 nM
EC50 (OCI-Ly3 cells): 500 nM
IC50 (JAK3 [6]): 2150 nM
EC50 (Ramos cells): 360 nM
IC50 (BMX [7]): 8.75 nM and 9 nM
EC50 (BCWM.1 cells): 320 nM
Structure (SMILES): C=CC(=O)N1CCc2ccc(-n3c(=O)ccc4cnc5ccc(-c6cn[nH]c6)cc5c43)cc21 [II-14]

IC50 (CLK1 [8]): 384 nM
inhibition at 1 µM (DYRK1A): 0.1%
inhibition at 1 µM (MKNK2): 0.15%
inhibition at 1 µM (TAK1): 0.35%
EC50 (MWCL-1 cells): 180 nM
inhibition at 1 µM (IRAK3): 0.7%
inhibition at 1 µM (PIK4CB): 2.3%
Percent Control, CLK1/2 (CLK1) (CLK1 [9]; DiscoverX binding, first value of cell): 0.4%
inhibition at 1 µM (CLK1 [9]; read-out: % inhibition at 1 uM, CLK1): 0.4%
Percent Control, TEC (TEC [10]): 6%
% inhibition at 1 uM, FLT3(ITD) (FLT3(ITD)): 2.4%
inhibition at 1 µM (YSK4): 1.2%
IC50 (EGFR(T790M) [11]): 98.8 nM
IC50 (BTK [2]): 5.34 nM and 5 nM
inhibition at 1 µM (MEK5): 0.3%
IC50 (CLK2 [12]): 50 nM
inhibition at 1 µM (DYRK2): 0.6%
EC50 (OCI-Ly19 cells): 40 nM
IC50 (mTOR [4]): 21.9 nM and 22 nM
IC50 (BLK [5]): 30.2 nM and 30 nM
EC50 (OCI-Ly3 cells): 80 nM
Percent Control, BLK (BLK [13]; DiscoverX binding): 2.4%
inhibition at 1 µM (BLK [13]; read-out: % inhibition at 1 uM, BLK): 2.4%
inhibition at 1 µM (PIK3CG): 4.2%
inhibition at 1 µM (CSNK2A2): 1.2%
Percent Control, ITK (ITK): 29%
IC50 (JAK3 [6]): 38.1 nM and 38 nM
Percent Control, BTK (BTK [14]; DiscoverX binding): 0.2%
percent of control (remaining binding) at 1 µM (BTK [14]; read-out: % inhibition at 1 uM, BTK): 0.2%
Percent Control, EGFR(T790M) (EGFR(T790M) [15]; DiscoverX binding): 1.8%
inhibition at 1 µM (EGFR(T790M) [15]; read-out: % inhibition at 1 uM, EGFR(T790M)): 1.4%
inhibition at 1 µM (JNK1): 1.9%
inhibition at 1 µM (PIK3CA(I800L)): 0.45%
Percent Control, JAK3 (JAK3 [16]; DiscoverX binding): 0%
inhibition at 1 µM (JAK3 [16]; read-out: % inhibition at 1 uM, JAK3(JH1domain-catalytic)): 0%
inhibition at 1 µM (JNK3): 1.8%
inhibition at 1 µM (PIP5K2C): 2.7%
Percent Control, BMX (BMX [17]): 4.6%
Percent Control, CLK1/2 (CLK2) (CLK2 [18]; DiscoverX binding, second value of cell): 1.0%
inhibition at 1 µM (CLK2 [18]; read-out: % inhibition at 1 uM, CLK2): 1.6%
EC50 (Ramos cells): 40 nM
Percent Control, mTOR (mTOR [19]): 0%
IC50 (BMX [7]): 7.36 nM and 7 nM
EC50 (BCWM.1 cells): 50 nM
inhibition at 1 µM (DYRK1B): 1.8%
Structure (SMILES): C=CC(=O)Nc1cc(-n2c(=O)ccc3cnc4ccc(-c5cn[nH]c5)cc4c32)ccc1C [II-6]

Structure (SMILES): CN(c1ncccc1CNc1nc(Nc2ccc3c(c2)CC(=O)N3)ncc1C(F)(F)F)S(C)(=O)=O [PF562271]
stimulatory effect of BmxWT on wound healing migration [20]: blocked

BMX protein levels in RV-1 cells (BMX [21]): not
concentration inhibiting autophosphorylation of wild-type BMX (wild-type (WT) BMX): > 10,000 nM
Structure (SMILES): CCC(=O)Nc1cc(-n2c(=O)ccc3cnc4ccc(-c5ccc(NS(C)(=O)=O)cc5)cc4c32)ccc1C [I-14R]
concentration with antiproliferative effects against RV-1 cells (RV-1 cells [22]): ≥ 10 µM

Structure (SMILES): NC1(c2ccc(-c3nc4ccn5c(=O)[nH]nc5c4cc3-c3ccccc3)cc2)CCC1 [MK2206]
MK2206 concentration that potentiates the antiproliferative activity of I-14 (RV-1 cells [23]): ≤ 25 nM
